Test results as given in patent US20050043315A1, “Aminopyrimidine compounds, processes for their preparation and pharmaceutical compositions containing them” (priority 2002, published 2005).

| SMILES | melting point [°C] |
| --- | --- |
| CC(C)n1nc(-c2c(Oc3ccccc3)nc(N)nc2-c2ccccc2)ccc1=O [Example 98, 6-(2-Amino-4-phenoxy-6-phenyl-5-pyrimidinyl)-2-isopropyl-3(2H)-pyridazinone] | 218 to 221 |
| CC(C)n1nc(-c2c(OCC(N)=O)nc(N)nc2-c2ccccc2)ccc1=O [Example 99, 2-{[2-amino-5-(1-isopropyl-6-oxo-1,6-dihydro-3-pyridazinyl)-6-phenyl-4-pyrimidinyl]oxy}acetamide] | 257 to 261 |
| CC(C)n1nc(-c2c(OCC(=O)O)nc(N)nc2-c2ccccc2)ccc1=O [Example 100, {[2-amino-5-(1-isopropyl-6-oxo-1,6-dihydro-3-pyridazinyl)-6-phenyl-4-pyrimidinyl]oxy}acetic acid] | 215 to 217 |
| CNC(=O)COc1nc(N)nc(-c2ccccc2)c1-c1ccc(=O)n(C(C)C)n1 [Example 101, 2-{[2-amino-5-(1-isopropyl-6-oxo-1,6-dihydro-3-pyridazinyl)-6-phenyl-4-pyrimidinyl]oxy}-N-methylacetamide] | 204 to 205.5 |
| CC(C)n1nc(-c2c(OCC(=O)N(C)C)nc(N)nc2-c2ccccc2)ccc1=O [Example 102, 2-{[2-Amino-5-(1-isopropyl-6-oxo-1,6-dihydro-3-pyridazinyl)-6-phenyl-4-pyrimidinyl]oxy}-N,N-dimethylacetamide] | 133 to 135.5 |
| CC(C)n1nc(-c2c(OCC(=O)NC3CC3)nc(N)nc2-c2ccccc2)ccc1=O [Example 103, 2-{[2-Amino-5-(1-isopropyl-6-oxo-1,6-dihydro-3-pyridazinyl)-6-phenyl-4-pyrimidinyl]oxy}-N-cyclopropylacetamide] | 87 to 92 |
| CC(C)n1nc(-c2c(OCCN)nc(N)nc2-c2ccccc2)ccc1=O [Example 104, 6-[2-amino-4-(2-aminoethoxy)-6-phenyl-5-pyrimidinyl]-2-isopropyl-3(2H)-pyridazinone] | 213 to 216 |
| CC(C)n1nc(-c2c(N)nc(N)nc2-c2ccccc2)ccc1=O [Example 105, 6-(2,4-diamino-6-phenyl-5-pyrimidinyl)-2-isopropyl-3(2H)-pyridazinone] | 258 to 260 |
| CNc1nc(N)nc(-c2ccccc2)c1-c1ccc(=O)n(C(C)C)n1 [Example 106, 6-[2-Amino-4-(methylamino)-6-phenyl-5-pyrimidinyl]-2-isopropyl-3(2H)-pyridazinone] | 268 to 270 |
| CC(C)n1nc(-c2c(-c3ccccc3)nc(N)nc2N(C)C)ccc1=O [Example 107, 6-[2-Amino-4-(dimethylamino)-6-phenyl-5-pyrimidinyl]-2-isopropyl-3(2H)-pyridazinone] | 293 to 296 |
| CCNc1nc(N)nc(-c2ccccc2)c1-c1ccc(=O)n(C(C)C)n1 [Example 108, 6-[2-Amino-4-(ethylamino)-6-phenyl-5-pyrimidinyl]-2-isopropyl-3(2H)-pyridazinone] | 208 to 209 |
| CCCNc1nc(N)nc(-c2ccccc2)c1-c1ccc(=O)n(C(C)C)n1 [Example 109, 6-[2-Amino-4-phenyl-6-(propylamino)-5-pyrimidinyl]-2-isopropyl-3(2H)-pyridazinone] | 209 to 212 |
| CC(C)Nc1nc(N)nc(-c2ccccc2)c1-c1ccc(=O)n(C(C)C)n1 [Example 110, 6-[2-Amino-4-(isopropylamino)-6-phenyl-5-pyrimidinyl]-2-isopropyl-3(2H)-pyridazinone] | 234 to 236 |
| C=CCNc1nc(N)nc(-c2ccccc2)c1-c1ccc(=O)n(C(C)C)n1 [Example 111, 6-[4-(Allylamino)-2-amino-6-phenyl-5-pyrimidinyl]-2-isopropyl-3(2H)-pyridazinone] | 191.5 to 192.5 |
| CC(C)n1nc(-c2c(NC3CC3)nc(N)nc2-c2ccccc2)ccc1=O [Example 112, 6-[2-Amino-4-(cyclopropylamino)-6-phenyl-5-pyrimidinyl]-2-isopropyl-3(2H)-pyridazinone] | 237 to 239 |
| CC(C)n1nc(-c2c(NC(C)(C)C)nc(N)nc2-c2ccccc2)ccc1=O [Example 113, 6-[2-Amino-4-(tert-butylamino)-6-phenyl-5-pyrimidinyl]-2-isopropyl-3(2H)-pyridazinone] | 202 to 204 |
| CC(C)n1nc(-c2c(NCCO)nc(N)nc2-c2ccccc2)ccc1=O [Example 114, 6-{2-amino-4-[(2-hydroxyethyl)amino]-6-phenyl-5-pyrimidinyl}-2-isopropyl-3(2H)-pyridazinone] | 221.5 to 223.5 |
| COCCNc1nc(N)nc(-c2ccccc2)c1-c1ccc(=O)n(C(C)C)n1 [Example 115, 6-{2-amino-4-[(2-methoxyethyl)amino]-6-phenyl-5-pyrimidinyl}-2-isopropyl-3(2H)-pyridazinone] | 168 to 170 |
| CC(C)n1nc(-c2c(NCCN)nc(N)nc2-c2ccccc2)ccc1=O [Example 116, 6-{2-Amino-4-[(2-aminoethyl)amino]-6-phenyl-5-pyrimidinyl}-2-isopropyl-3(2H)-pyridazinone] | 194 to 197 |

| SMILES | melting point [°C] |
| --- | --- |
| CC(C)n1nc(-c2c(NCCN(C)C)nc(N)nc2-c2ccccc2)ccc1=O [Example 117, 6-(2-Amino-4-{[2-(dimethylamino)ethyl]amino}-6-phenyl-5-pyrimidinyl)-2-isopropyl-3(2H)-pyridazinone] | 164 to 165.5 |
| CC(C)n1nc(-c2c(NCC(N)=O)nc(N)nc2-c2ccccc2)ccc1=O [Example 118, 2-{(2-amino-5-(1-isopropyl-6-oxo-1,6-dihydro-3-pyridazinyl)-6-phenyl-4-pyrimidinyl]amino}acetamide] | 235 to 237.5 |
| CC(C)n1nc(-c2c(-c3ccccc3)nc(N)nc2N(C)Cc2ccccc2)ccc1=O [Example 120, 6-{2-amino-4-[benzyl(methyl)amino]-6-phenyl-5-pyrimidinyl}-2-isopropyl-3(2H)-pyridazinone] | 167 to 168 |
| CC(C)n1nc(-c2c(NCc3ccccn3)nc(N)nc2-c2ccccc2)ccc1=O [Example 121, 6-{2-Amino-4-phenyl-6-[(2-pyridinylmethyl)amino]-5-pyrimidinyl}-2-isopropyl-3(2H)-pyridazinone] | 196 to 198 |
| CC(C)n1nc(-c2c(NCc3cccnc3)nc(N)nc2-c2ccccc2)ccc1=O [Example 122, 6-{2-Amino-4-phenyl-6-[(3-pyridinylmethyl)amino]-5-pyrimidinyl}-2-isopropyl-3(2H)-pyridazinone] | 215 to 216.5 |
| CC(C)n1nc(-c2c(NCc3ccncc3)nc(N)nc2-c2ccccc2)ccc1=O [Example 123, 6-{2-Amino-4-phenyl-6-[(4-pyridinylmethyl)amino]-5-pyrimidinyl}-2-isopropyl-3(2H)-pyridazinone] | 221.5 to 222.5 |
| CC(C)n1nc(-c2c(NCc3ccco3)nc(N)nc2-c2ccccc2)ccc1=O [Example 124, 6-{2-Amino-4-[(2-furylmethyl)amino]-6-phenyl-5-pyrimidinyl}-2-isopropyl-3(2H)-pyridazinone] | 213 to 214 |
| CC(C)n1nc(-c2c(-c3ccccc3)nc(N)nc2N2CCCC2)ccc1=O [Example 125, 6-[2-Amino-4-phenyl-6-(1-pyrrolidinyl)-5-pyrimidinyl]-2-isopropyl-3(2H)-pyridazinone] | > 300 |
| CC(C)n1nc(-c2c(-c3ccccc3)nc(N)nc2N2CCCCC2)ccc1=O [Example 126, 6-[2-Amino-4-phenyl-6-(1-piperidinyl)-5-pyrimidinyl]-2-isopropyl-3(2H)-pyridazinone] | 221 to 223 |
| CC(C)n1nc(-c2c(-c3ccccc3)nc(N)nc2N2CCOCC2)ccc1=O [Example 127, 6-[2-Amino-4-(4-morpholinyl)-6-phenyl-5-pyrimidinyl]-2-isopropyl-3(2H)-pyridazinone] | 251 to 253 |
| CC(C)n1nc(-c2c(-c3ccccc3)nc(N)nc2N2CCNCC2)ccc1=O [Example 128, 6-[2-amino-4-phenyl-6-(1-piperazinyl)-5-pyrimidinyl]-2-isopropyl-3(2H)-pyridazinone] | 254 to 256 |
| CC(C)n1nc(-c2c(-c3ccccc3)nc(N)nc2N2CCN(C)CC2)ccc1=O [Example 129, 6-[2-Amino-4-(4-methyl-1-piperazinyl)-6-phenyl-5-pyrimidinyl]-2-isopropyl-3(2H)-pyridazinone] | 213 to 215 |
| CC(C)n1nc(-c2c(-c3ccccc3)nc(N)nc2-n2ccnc2)ccc1=O [Example 130, 6-[2-amino-4-(1H-imidazol-1-yl)-6-phenyl-5-pyrimidinyl]-2-isopropyl-3(2H)-pyridazinone] | 255 to 258 |
| CC(C)n1nc(-c2c(-c3ccccc3)nc(N)nc2-n2cncn2)ccc1=O [Example 131, 6-[2-Amino-4-phenyl-6-(1H-1,2,4-triazol-1-yl)-5-pyrimidinyl]-2-isopropyl-3(2H)-pyridazinone] | 266 to 268 |
| CC(C)n1nc(-c2c(-c3ccccc3)nc(N)nc2-n2cnc3ccccc32)ccc1=O [Example 132, 6-[2-Amino-4-(1H-benzimidazol-1-yl)-6-phenyl-5-pyrimidinyl]-2-isopropyl-3(2H)-pyridazinone] | 242 to 244 |
| CC(C)n1nc(-c2c(Nc3ccccc3)nc(N)nc2-c2ccccc2)ccc1=O [Example 133, 6-(2-amino-4-anilino-6-phenyl-5-pyrimidinyl)-2-isopropyl-3(2H)-pyridazinone] | 240 to 242 |
| Cc1nc(Nc2nc(N)nc(-c3ccccc3)c2-c2ccc(=O)n(C(C)C)n2)sc1C [Example 134, 6-{2-Amino-4-[(4,5-dimethyl-1,3-thiazol-2-yl)amino]-6-phenyl-5-pyrimidinyl}-2-isopropyl-3(2H)-pyridazinone] | 256 to 257.5 |
| CC(C)n1nc(-c2c(Nc3ccccn3)nc(N)nc2-c2ccccc2)ccc1=O [Example 135, 6-[2-Amino-4-phenyl-6-(2-pyridinylamino)-5-pyrimidinyl]-2-isopropyl-3(2H)-pyridazinone] | 163 to 164 |
| CC(C)n1nc(-c2c(NC(=N)N)nc(N)nc2-c2ccccc2)ccc1=O [Example 137, N-[2-amino-5-(1-isopropyl-6-oxo-1,6-dihydro-3-pyridazinyl)-6-phenyl-4-pyrimidinyl]guanidine] | 272 to 274.5 |
